Data published in patent US5861296A, “Purified thermostable inorganic pyprophosphatase obtainable from thermococcus litoralis” (New England Biolabs, Inc., priority 1997, dated 1999).

Key:
[1] = target: Thermococcus litoralis inorganic pyrophosphatase (PPase), wild type, SEQ ID NO: 10 (Thermococcus litoralis, UniProt P77992); conditions: read-out: apparent Km for PPi (inorganic pyrophosphate); initial velocities at low substrate concentrations, Mg2+/PPi ratio of one; Lineweaver-Burke plot
Procedure: The PPase is incubated at 75° C. for 10 minutes in a 100 μl reaction containing 30 mM Tris pH 9.0, 1.5 mM MgCl2 and 1.5 mM sodium pyrophosphate. The enzyme is then cooled quickly to room temperature and complexed with 0.9 ml of Taussky-Schorr reagent (5.0 g ferrous sulfate, 10 ml 10% ammonium molybdate in 10N sulfuric acid, in a final solution volume of 100 ml.) After 10 minutes, an absorbance reading is taken at 660 nm. The absorbance reading was compared to a standard curve using Sigma's (St. Louis, Mo.) phosphorous standard (#661-9). One standard unit will liberate 1.0 μmole of inorganic orthophosphate per minute under the above conditions.

[2] = target: the molecule itself; assay: gel filtration on Superose 12 HR 10/30 (125 kDa) against the subunit mass by SDS-PAGE and DNA sequence
Procedure: The molecular mass of the *T. litoralis* inorganic pyrophosphatase was estimated by gel filtration in a Superose 12 HR 10/30 (Pharmacia; Piscataway, N.J.) (10×300 mm). The column was equilibrated with 50 mM Tris-HCl pH 7.5 containing 100 mM NaCl and run at a flow rate of 0.5 ml/min. The Superose 12 HR 10/30 had been previously calibrated with different standard proteins: Catalase (232 kDa), Aldolase (158 kDa), Bovine Serum Albumin (67 KDa), Ovalbumin (43 kDa), Chymotrypsinogen (25 kDa), and Ribonuclease A (13.7 kDa) (all from Pharmacia; Piscataway, N.J.). From the plot of log (molecular mass) versus the distribution coefficient (Kav), a value of 125 kDa was calculated for the molecular mass of *T. litoralis* inorganic pyrophosphatase. Since the apparent molecular mass of the monomer was determined to be 20 to 21 kDa on an SDS-PAGE and 19,666 Da by the DNA sequence, the enzyme is probably homohexameric. The homohexameric structure of the *Thermococcus litoralis* inorganic pyrophosphatase agrees with other known cytoplasmic PPases from eubacterial and archaeal sources which tend to be tetrameric or hexameric complexes with single subunits of 19 to 23 kDa.

Molecule	Km [1]	binding result [2]
O=P(O)(O)OP(=O)(O)O [PPi, inorganic pyrophosphate]	1000 µM	
Thermococcus litoralis inorganic pyrophosphatase subunit (enzyme) MNPFHDLEPGPEVPEVVYALIEIPKGSRNKYELDKKTGLIKLDRVLYSPFHYPVDYGIIPQTWYDDDDPFDIMVIMREPTYPGVLIEARPIGLFKMIDSGDKDYKVLAVPVEDPYFNDWKDISDVPKAFLDEIAHFFQRYKELQGKEIIVEGWENAEKAKQEILRAIELYKEKFKK		binds
